Data from ChEMBL document CHEMBL3352027, “Pharmacologically active metabolites, combination screening and target identification-driven drug repositioning in antituberculosis drug discovery” (2014).
≈ marks a conversion by molar mass, not a printed value.

Columns and labels:
Type in all cases: functional
[1] = tested on: Mycolicibacterium smegmatis; test: Antitubercular activity against Mycobacterium smegmatis by checkerboard assay
[2] = tested on: Mycolicibacterium smegmatis; test: Antitubercular activity against Mycobacterium smegmatis by checkerboard assay in presence of spectinomycin
[3] = tested on: Mycobacterium tuberculosis; test: Antitubercular activity against drug-sensitive Mycobacterium tuberculosis
[4] = tested on: Mycolicibacterium smegmatis; test: Ratio of MIC99 for Mycobacterium smegmatis to ratio of MIC99 for Mycobacterium smegmatis in presence of kanamycin
[5] = tested on: Mycolicibacterium smegmatis; test: Antitubercular activity against Mycobacterium smegmatis by checkerboard assay in presence of 25-desacetylrifampicin
[6] = tested on: Mycolicibacterium smegmatis; test: Ratio of MIC99 for Mycobacterium smegmatis to ratio of MIC99 for Mycobacterium smegmatis in presence of 25-desacetylrifampicin
[7] = tested on: Mycolicibacterium smegmatis; test: Antitubercular activity against Mycobacterium smegmatis by checkerboard assay in presence of rifampicin
[8] = tested on: Mycolicibacterium smegmatis; test: Antitubercular activity against Mycobacterium smegmatis by checkerboard assay in presence of kanamycin
[9] = tested on: Mycolicibacterium smegmatis; test: Ratio of MIC99 for Mycobacterium smegmatis to ratio of MIC99 for Mycobacterium smegmatis in presence of nor-chlorpromazine
[10] = tested on: Mycolicibacterium smegmatis; test: Antitubercular activity against Mycobacterium smegmatis by checkerboard assay in presence of chlorpromazine-N-oxide; details: for MIC99: Mycolicibacterium smegmatis
[11] = tested on: Mycolicibacterium smegmatis; test: Ratio of MIC99 for Mycobacterium smegmatis to ratio of MIC99 for Mycobacterium smegmatis in presence of 7-hydroxy chlorpromazine
[12] = tested on: Mycolicibacterium smegmatis; test: Antitubercular activity against Mycobacterium smegmatis by checkerboard assay in presence of 7-hydroxy chlorpromazine; details: for MIC99: Mycolicibacterium smegmatis
[13] = tested on: Mycolicibacterium smegmatis; test: Ratio of MIC99 for Mycobacterium smegmatis to ratio of MIC99 for Mycobacterium smegmatis in presence of chlorpromazine-N-oxide
[14] = tested on: Mycolicibacterium smegmatis; test: Antitubercular activity against Mycobacterium smegmatis by checkerboard assay in presence of chlorpromazine; details: for MIC99: Mycolicibacterium smegmatis
[15] = tested on: Mycolicibacterium smegmatis; test: Ratio of MIC99 for Mycobacterium smegmatis to ratio of MIC99 for Mycobacterium smegmatis in presence of chlorpromazine
[16] = tested on: Mycolicibacterium smegmatis; test: Antitubercular activity against Mycobacterium smegmatis by checkerboard assay in presence of nor-chlorpromazine; details: for MIC99: Mycolicibacterium smegmatis
[17] = tested on: Mycolicibacterium smegmatis; test: Antitubercular activity against Mycobacterium smegmatis by checkerboard assay in presence of nor-chlorpromazine sulfoxide
[18] = tested on: Mycolicibacterium smegmatis; test: Antitubercular activity against Mycobacterium smegmatis assessed as reduction in MIC99 by checkerboard assay in presence of chlorpromazine sulfoxide relative to control
[19] = tested on: Mycolicibacterium smegmatis; test: Antitubercular activity against Mycobacterium smegmatis assessed as reduction in MIC99 by checkerboard assay in presence of chlorpromazine-N-S-dioxide relative to control
[20] = tested on: Mycolicibacterium smegmatis; test: Antitubercular activity against Mycobacterium smegmatis assessed as reduction in MIC99 by checkerboard assay in presence of nor-chlorpromazine sulfoxide relative to control
[21] = tested on: Mycolicibacterium smegmatis; test: Antitubercular activity against Mycobacterium smegmatis by checkerboard assay in presence of chlorpromazine-N-S-dioxide
[22] = tested on: Mycolicibacterium smegmatis; test: Antitubercular activity against Mycobacterium smegmatis by checkerboard assay in presence of chlorpromazine sulfoxide

SMILES: CNCCCN1c2ccccc2[S+]([O-])c2ccc(Cl)cc21 (configuration not stated)
- MIC99 [1]: > 2080 µM
- MIC99 [2]: 64.9 µM

SMILES: CN[C@@H]1[C@H](O)[C@H](NC)[C@H]2O[C@]3(O)[C@H](O[C@@H]2[C@H]1O)O[C@H](C)C[C@H]3NC(=O)Cc1ccccn1
- MIC [3]: 0.8 µg/mL (≈ 1.77 µM)

SMILES: CN[C@@H]1[C@H](O)[C@H](NC)[C@H]2O[C@]3(O)[C@H](O[C@@H]2[C@H]1O)O[C@H](C)C[C@H]3NC(=O)Cc1cc(Cl)ccn1
- MIC [3]: 0.8 µg/mL (≈ 1.64 µM)

SMILES: C[N+](C)([O-])CCCN1c2ccccc2Sc2ccc(Cl)cc21
- MIC99 [1]: 995 µM
- Ratio [4]: 0.5
- MIC99 [2]: 124 µM
- MIC99 [5]: 498 µM
- Ratio [6]: 0.5
- MIC99 [7]: 498 µM
- MIC99 [8]: 498 µM

SMILES: CN[C@@H]1[C@H](O)[C@H](NC)[C@H]2O[C@]3(O)[C@H](O[C@@H]2[C@H]1O)O[C@H](C)C[C@H]3NC(=O)Cc1ccc(Cl)cn1
- MIC [3]: 0.8 µg/mL (≈ 1.64 µM)

SMILES: CO[C@H]1/C=C/O[C@@]2(C)Oc3c(C)c(O)c4c(O)c(c(/C=N/N5CCN(C)CC5)c(O)c4c3C2=O)NC(=O)/C(C)=C\C=C\[C@H](C)[C@H](O)[C@@H](C)[C@@H](O)[C@@H](C)[C@H](O)[C@@H]1C [DESACETYLRIFAMPIN]
- MIC99 [1]: 5.33 µM
- Ratio [9]: 0.252
- fractional inhibitory concentration index (FICI) [10]: 0.75
- MIC99 [10]: 0.67 µM
- Ratio [11]: 0.248
- fractional inhibitory concentration index (FICI) [12]: 0.75
- MIC99 [12]: 0.33 µM
- Ratio [13]: 0.252
- fractional inhibitory concentration index (FICI) [14]: 0.5
- MIC99 [14]: 1.33 µM
- Ratio [15]: 0.25
- fractional inhibitory concentration index (FICI) [16]: 0.5
- MIC99 [16]: 0.67 µM

SMILES: CN[C@@H]1[C@H](O)[C@H](NC)[C@H]2O[C@]3(O)[C@H](O[C@@H]2[C@H]1O)O[C@H](C)C[C@H]3NC(=O)CNC(C)(C)C
- MIC [3]: 0.8 µg/mL (≈ 1.79 µM)

SMILES: CN[C@@H]1[C@H](O)[C@H](NC)[C@H]2O[C@]3(O)[C@H](O[C@@H]2[C@H]1O)O[C@H](C)C[C@H]3NC(=O)Cc1ccccc1
- MIC [3]: 0.8 µg/mL (≈ 1.77 µM)

SMILES: CN[C@@H]1[C@H](O)[C@H](NC)[C@H]2O[C@@]3(O)C(=O)C[C@@H](C)O[C@H]3O[C@@H]2[C@H]1O [SPECTINOMYCIN]
- MIC99 [17]: 21 µM
- fold change (FC) [18]: 16
- MIC99 [1]: 84.1 µM
- Ratio [9]: 0.062
- fold change (FC) [19]: 2
- fractional inhibitory concentration index (FICI) [10]: 0.63
- MIC99 [10]: 84.1 µM
- Ratio [11]: 0.062
- fractional inhibitory concentration index (FICI) [12]: 0.19
- MIC99 [12]: 5.25 µM
- fold change (FC) [20]: 4
- Ratio [13]: 0.5
- fractional inhibitory concentration index (FICI) [14]: 0.31
- MIC99 [14]: 5.25 µM
- Ratio [15]: 0.062
- fractional inhibitory concentration index (FICI) [16]: 0.31
- MIC99 [16]: 5.25 µM
- MIC99 [21]: 42 µM
- MIC99 [22]: 10.5 µM

SMILES: C[N+](C)([O-])CCCN1c2ccccc2[S+]([O-])c2ccc(Cl)cc21 (configuration not stated)
- MIC99 [1]: > 1900 µM
- MIC99 [2]: 1900 µM
- MIC99 [8]: 475 µM

SMILES: CNCCCN1c2ccccc2Sc2ccc(Cl)cc21 [NOR1-CHLORPROMAZINE]
- MIC99 [1]: 137 µM
- Ratio [4]: 0.25
- MIC99 [2]: 34.2 µM
- MIC99 [5]: 34.2 µM
- Ratio [6]: 0.25
- MIC99 [7]: 34.2 µM
- MIC99 [8]: 34.2 µM

SMILES: CN[C@@H]1[C@H](O)[C@H](NC)[C@H]2O[C@]3(O)[C@H](O[C@@H]2[C@H]1O)O[C@H](C)C[C@H]3NC(=O)Cc1cscn1
- MIC [3]: 0.8 µg/mL (≈ 1.74 µM)

SMILES: CN[C@@H]1[C@H](O)[C@H](NC)[C@H]2O[C@]3(O)[C@H](O[C@@H]2[C@H]1O)O[C@H](C)C[C@H]3NC(=O)Cc1ccc(F)cn1
- MIC [3]: 0.8 µg/mL (≈ 1.7 µM)

SMILES: CN(C)CCCN1c2ccccc2Sc2ccc(Cl)cc21 [CHLORPROMAZINE]
- MIC99 [1]: 117 µM
- Ratio [4]: 0.5
- MIC99 [2]: 29.3 µM
- MIC99 [5]: 29.3 µM
- Ratio [11]: 0.25
- MIC99 [12]: 29.3 µM
- MIC99 [7]: 58.6 µM
- MIC99 [8]: 58.6 µM

SMILES: CO[C@H]1/C=C/O[C@@]2(C)Oc3c(C)c(O)c4c(O)c(c(/C=N/N5CCN(C)CC5)c(O)c4c3C2=O)NC(=O)/C(C)=C\C=C\[C@H](C)[C@H](O)[C@@H](C)[C@@H](O)[C@@H](C)[C@H](OC(C)=O)[C@@H]1C [RIFAMPIN]
- MIC99 [1]: 2.53 µM
- Ratio [9]: 0.254
- fractional inhibitory concentration index (FICI) [10]: 1
- MIC99 [10]: 0.63 µM
- Ratio [11]: 0.126
- fractional inhibitory concentration index (FICI) [12]: 0.63
- MIC99 [12]: 0.32 µM
- Ratio [13]: 0.5
- fractional inhibitory concentration index (FICI) [14]: 0.63
- MIC99 [14]: 0.2 µM
- Ratio [15]: 0.126
- fractional inhibitory concentration index (FICI) [16]: 0.5
- MIC99 [16]: 0.32 µM

SMILES: NC[C@H]1O[C@H](O[C@H]2[C@H](O)[C@@H](O[C@H]3O[C@H](CO)[C@@H](O)[C@H](N)[C@H]3O)[C@H](N)C[C@@H]2N)[C@H](O)[C@@H](O)[C@@H]1O [KANAMYCIN]
- fold change (FC) [18]: 2
- MIC99 [1]: 7.16 µM
- Ratio [9]: 0.249
- fold change (FC) [19]: 2
- fractional inhibitory concentration index (FICI) [10]: 1
- MIC99 [10]: 0.89 µM
- Ratio [11]: 0.249
- fractional inhibitory concentration index (FICI) [12]: 0.5
- MIC99 [12]: 0.89 µM
- Ratio [13]: 0.497
- fractional inhibitory concentration index (FICI) [14]: 1
- MIC99 [14]: 3.57 µM
- Ratio [15]: 0.5
- fractional inhibitory concentration index (FICI) [16]: 0.5
- MIC99 [16]: 0.89 µM
- MIC99 [21]: 0.89 µM
- MIC99 [22]: 0.89 µM

SMILES: CN(C)CCCN1c2ccccc2[S+]([O-])c2ccc(Cl)cc21 (configuration not stated) [CHLOROPROMAZINE SULFOXIDE]
- MIC99 [1]: > 1990 µM
- MIC99 [2]: 1990 µM
- MIC99 [8]: 1990 µM

SMILES: CN(C)CCCN1c2ccc(O)cc2Sc2ccc(Cl)cc21 [7-HYDROXYCHLORPROMAZINE]
- MIC99 [1]: 62.2 µM
- MIC99 [2]: 15.6 µM
- MIC99 [5]: 62.2 µM
- MIC99 [14]: 62.2 µM
- Ratio [15]: 0.5
- Ratio [6]: 0.5
- MIC99 [7]: 31.1 µM
- MIC99 [8]: 31.1 µM
